Tests used:
[1] = tested on: C57BL/6J mice at 20 months of age (Old Mice, OM); test: Forelimb grip strength (grip strength meter); format: in vivo; details: once daily by gavage for 4 months, vs OM group
Method: (§1) The healthy and male C57BL/6J mice at 20 months of age (Old Mice, OM) and at 2 months of age (Young Mice, YM) were maintained under the barrier conditions in a temperature-controlled environment and fed a commercial mouse chow. They were divided into the following five groups: (1) non-supplement young mice group (YM, n=5); (2) non-supplement old mice group (OM, n=5); (3)L-Ergothioneine supplement group with low dosage (OM+5 mg/kg/day, n=5); (4) L-Ergothioneine supplement group with moderate dosage (OM+15 mg/kg/day, n=5); and(5) L-Ergothioneine supplement group with high dosage (OM+45 mg/kg/day, n=5). All mice were administered L-Ergothioneine for once daily by gavage in normal saline solution for 4 months. Mice were euthanized by CO2 inhalation followed by cervical dislocation at the end of study and skeletal muscles were excised for an immediate isolation of mitochondria. Forelimb grip strength were analyzed using the rip strength meter (Bioseb, BIO-GS3) with mouse-specific wire grid (100×80 mm, angled 90° (vertical)), once per month during the study and at the end of the study. […] Statistical significance was determined using one-way ANOVA followed by Tukey's post hoc test (N=5, *P<0.05, **P<0.01, ***P<0.001 vs OM Group).

[2] = tested on: C57BL/6J mice at 20 months of age (Old Mice, OM); test: Motor coordination on rotating rod (Time to Fall); format: in vivo; details: once daily by gavage for 4 months, vs OM group
Method: as §1, with “Motor coordination deficits” for “Forelimb grip strength”, “performed by placing” for “analyzed using”, “mouse on a rotating rod (Beijing Zhishuduobao, DB093) and measuring how long it takes before mice fall off” for “rip strength meter (Bioseb, BIO-GS3) with mouse-specific wire grid (100×80 mm, angled 90° (vertical)), once per month during”, “rod (Time to Fall (s)).” for “study and at the end of the study.”, “**P<0.01,” for “**P<0.01, ***P<0.001”

[3] = Body weight and body composition (lean mass ratio) of old mice; format: in vivo, C57BL/6J mice; details: old mice, 5, 15 or 45 mg/kg/day by gavage for 4 months, vs OM group
Method: The healthy and male C57BL/6J mice at 20 months of age (Old Mice, OM) and at 2 months of age (Young Mice, YM) were maintained under the barrier conditions in a temperature-controlled environment and fed a commercial mouse chow. They were divided into the following five groups: (1) non-supplement young mice group (YM, n=5); (2) non-supplement old mice group (OM, n=5); (3)L-Ergothioneine supplement group with low dosage (OM+5 mg/kg/day, n=5); (4) L-Ergothioneine supplement group with moderate dosage (OM+15 mg/kg/day, n=5); and(5) L-Ergothioneine supplement group with high dosage (OM+45 mg/kg/day, n=5). All mice were administered L-Ergothioneine for once daily by gavage in normal saline solution for 4 months. Mice were euthanized by CO2 inhalation followed by cervical dislocation at the end of study and skeletal muscles were excised for an immediate isolation of mitochondria. The bodyweight of C57BL/6 mice was recorded before treatment, once per week during the study, and at the end of the study. Body composition (lean mass ratio) of mice was analyzed using the (NM42-[…]-1 system, Suzhou Niumag) before treatment, once per month during the study, and at the end of the study. […] Statistical significance was determined using one-way ANOVA followed by Tukey's post hoc test (N=5, *P<0.05, **P<0.01, vs OM Group).

[4] = tested on: C57BL/6J mice at 20 months of age (Old Mice, OM); test: Tissue weights of soleus and gastrocnemius muscle, age-induced muscle loss; format: in vivo; details: after 4 months administration by gavage, vs OM group
Method: The healthy and male C57BL/6J mice at 20 months of age (Old Mice, OM) and at 2 months of age (Young Mice, YM) were maintained under the barrier conditions in a temperature-controlled environment and fed a commercial mouse chow. They were divided into the following five groups: (1) non-supplement young mice group (YM, n=5); (2) non-supplement old mice group (OM, n=5); (3)L-Ergothioneine supplement group with low dosage (OM+5 mg/kg/day, n=5); (4) L-Ergothioneine supplement group with moderate dosage (OM+15 mg/kg/day, n=5); and(5) L-Ergothioneine supplement group with high dosage (OM+45 mg/kg/day, n=5). All mice were administered L-Ergothioneine for once daily by gavage in normal saline solution for 4 months. Mice were euthanized by CO2 inhalation followed by cervical dislocation at the end of study and skeletal muscles were excised for an immediate isolation of mitochondria. FIGS. 1A-1D show the test results related to effect of EGT treatment on age-induced muscle loss in mice monthly, particularly regarding body weight measurement (FIG. 1A), lean mass ratio (FIG. 1B), tissue weights of soleus muscle (FIG. 1C), and tissue weights of gastrocnemius muscle (FIG. 1D). Statistical significance was determined using one-way ANOVA followed by Tukey's post hoc test (N=5, *P<0.05, **P<0.01, vs OM Group).

[5] = tested on: skeletal muscles mitochondria; test: ATP production, O2 consumption and P/O ratio in skeletal muscle mitochondria from treated mice; format: in vivo, C57BL/6J mice; details: isolated skeletal muscle mitochondria of old mice treated for 4 months, vs OM group
Method: as §1, with “mitochondria. Extracting skeletal muscles mitochondria from mice to measure ATP production and O2 consumption. ATP production was measured using a luciferase/luciferin based system. O2 consumption was measured using optical spectra. The all data” for “mitochondria. Forelimb grip strength”, “analyzed to identify” for “analyzed using”, “the L-Ergothioneine function for improving ATP production” for “the rip strength meter (Bioseb, BIO-GS3) with mouse-specific wire grid (100×80 mm, angled 90° (vertical)), once per month during the study”, “and O2 consumption.” for “and at the end of the study.”

C[N+](C)(C)[C@@H](Cc1c[nH]c(=S)[nH]1)C(=O)[O-] [L-Ergothioneine]
forelimb grip strength [1]: ameliorating and preventing the loss of muscle grip strength | time on rotating rod (Time to Fall) [2]: prolong time of maintain on a rotating rod | body composition (lean mass ratio) [3]: no significant difference | body weight [3]: no significant difference | weight of the gastrocnemius muscle [4]: prevented this reduction | weight of the soleus muscle [4]: prevented this reduction | ATP synthesis [5]: increase of ATP synthesis | P/O ratio (ATP produced per O2 consumed) [5]: increase of ATP synthesis and P/O ratio

From US20240082219A1, “METHODS FOR AMELIORATING AND PREVENTING AGE-RELATED MUSCLE DEGENERATION” (NANJING NUTRABUILDING BIO-TECH CO., LTD., priority 2021, published 2024)
